ChEMBL document CHEMBL1147597, “Synthesis and biological evaluations of novel benzimidazoles as potential antibacterial agents” (Bioorg Med Chem Lett, 2004)
Converted amounts (≈) assume the structure as drawn.

Legend:
Escherichia coli [1] = experiment: Minimal inhibitory concentration against Escherichia coli (Range is 50-100 uM); type: functional
Staphylococcus aureus [2] = experiment: Minimal inhibitory concentration against Staphylococcus aureus (Range is 12-25 uM); type: functional
Escherichia coli [3] = experiment: Minimal inhibitory concentration against Escherichia coli; type: functional
Staphylococcus aureus [4] = experiment: In vitro minimal inhibitory concentration against Staphylococcus aureus.; type: functional
Staphylococcus aureus [5] = experiment: Minimal inhibitory concentration against Staphylococcus aureus (Range is 50-100 uM); type: functional
Escherichia coli [6] = experiment: Minimal inhibitory concentration against Escherichia coli (Range is 25-50 uM); type: functional
Staphylococcus aureus [7] = experiment: Minimal inhibitory concentration against Staphylococcus aureus (Range is 25-50 uM); type: functional
Bacteria = experiment: Inhibitory activity against bacteria in the transcription/translation assay; type: functional, organism-based
Enterococcus hirae [8] = experiment: Minimal inhibitory concentration against gram positive Enterococcus hirae 29212 strain (Range is 1-3 uM); type: functional
Escherichia coli [9] = experiment: Minimal inhibitory concentration against Escherichia coli (Range is 12-25 uM); type: functional
Escherichia coli [10] = experiment: Minimal inhibitory concentration against gram negative Escherichia coli 25922 strain (Range is 12-25 uM); type: functional; settings: ATCC25922
Klebsiella pneumoniae [11] = experiment: Minimal inhibitory concentration against gram negative Klebsiella pneumoniae 13383 strain (Range is 6-12 uM); type: functional
Pseudomonas aeruginosa [12] = experiment: Minimal inhibitory concentration against gram negative Pseudomonas aeruginosa 25416 strain (Range is 12-25 uM); type: functional
Staphylococcus aureus [13] = experiment: Minimal inhibitory concentration against Staphylococcus aureus (Range is 6-12 uM); type: functional
Staphylococcus aureus [14] = experiment: Minimal inhibitory concentration against gram positive Staphylococcus aureus 13709 strain (Range is 6-12 uM); type: functional
Streptococcus pneumoniae [15] = experiment: Minimal inhibitory concentration against gram positive Streptococcus pneumoniae 6303 strain (Range is 6-12 uM); type: functional
Streptococcus pyogenes [16] = experiment: Minimal inhibitory concentration against gram positive Streptococcus pyogenes 49399 strain (Range is 3-6 uM); type: functional
Enterococcus hirae [17] = experiment: Minimal inhibitory concentration against gram positive Enterococcus hirae 29212 strain (Range is 3-6 uM); type: functional
Escherichia coli [18] = experiment: Minimal inhibitory concentration against gram negative Escherichia coli 25922 strain; type: functional; settings: ATCC25922
Pseudomonas aeruginosa [19] = experiment: Minimal inhibitory concentration against gram negative Pseudomonas aeruginosa 25416 strain (Range is 50-100 uM); type: functional
Proteus vulgaris [20] = experiment: Minimal inhibitory concentration against gram negative Proteus vulgaris 8427 strain (Range is 50-100 uM); type: functional
Staphylococcus aureus [21] = experiment: Minimal inhibitory concentration against Staphylococcus aureus (Range is 3-6 uM); type: functional
Staphylococcus aureus [22] = experiment: Minimal inhibitory concentration against gram positive Staphylococcus aureus 13709 strain (Range is 3-6 uM); type: functional
Streptococcus pyogenes [23] = experiment: Minimal inhibitory concentration against gram positive Streptococcus pyogenes 49399 strain (Range is 6-12 uM); type: functional
Streptococcus pneumoniae [24] = experiment: Minimal inhibitory concentration against gram positive Streptococcus pneumoniae 6303 strain (Range is 12-25 uM); type: functional
Enterococcus hirae [25] = experiment: Minimal inhibitory concentration against gram positive Enterococcus hirae 29212 strain (Range is 25-50 uM); type: functional
Escherichia coli [26] = experiment: Minimal inhibitory concentration against gram negative Escherichia coli 25922 strain (Range is 25-50 uM); type: functional; settings: ATCC25922
Klebsiella pneumoniae [27] = experiment: Minimal inhibitory concentration against gram negative Klebsiella pneumoniae 13383 strain (Range is 25-50 uM); type: functional
Proteus vulgaris [28] = experiment: Minimal inhibitory concentration against gram negative Proteus vulgaris 8427 strain (Range is 25-50 uM); type: functional
Staphylococcus aureus [29] = experiment: Minimal inhibitory concentration against Staphylococcus aureus (Range is 12-50 uM); type: functional
Streptococcus pyogenes [30] = experiment: Minimal inhibitory concentration against gram positive Streptococcus pyogenes 49399 strain (Range is 25-50 uM); type: functional

`O=C1c2cc(Cl)c(Cl)cc2C(=O)N1CCCCCn1c(C2CCNCC2)nc2cc(Cl)c(Cl)cc21` was tested. Which MIC (Escherichia coli [1]) did it give?
Its MIC is 100 µM (≈ 55.4 µg/mL).

And the MIC (Staphylococcus aureus [2])?
Its MIC is 25 µM (≈ 13.9 µg/mL).

For `O=C(Cn1c(C2CCNCC2)nc2cc(Cl)c(Cl)cc21)N/N=C/c1ccc[nH]1`, which MIC (Escherichia coli [3]) is on record?
Its MIC is greater than 100 µM.

What about the MIC (Staphylococcus aureus [2]) of the same molecule?
Its MIC is 25 µM (≈ 10.5 µg/mL).

Which results are given for `O=C(O)CC/N=C(\S)NNC(=O)Cn1c(C2CCNCC2)nc2cc(Cl)c(Cl)cc21`?
MIC (Escherichia coli [3]): > 100 µM; MIC (Staphylococcus aureus [4]): > 100 µM

Which results are given for `O=C1c2ccc([N+](=O)[O-])cc2C(=O)N1CCCCCn1c(C2CCNCC2)nc2cc(Cl)c(Cl)cc21`?
MIC (Escherichia coli [1]): 100 µM (≈ 53 µg/mL); MIC (Staphylococcus aureus [4]): > 100 µM

Which results are given for `Clc1cc2nc(C3CCNCC3)n(CCCCSc3[nH]cnc4ncnc3-4)c2cc1Cl`?
MIC (Escherichia coli [3]): > 100 µM; MIC (Staphylococcus aureus [4]): > 100 µM

Which MIC (Escherichia coli [3]) does the source give for `O=C1c2cccc([N+](=O)[O-])c2C(=O)N1CCCCCn1c(C2CCNCC2)nc2cc(Cl)c(Cl)cc21` here?
Its MIC is greater than 100 µM.

What about the MIC (Staphylococcus aureus [4]) of the same molecule?
Its MIC is greater than 100 µM.

Which results are given for `O=C(Cn1c(C2CCNCC2)nc2cc(Cl)c(Cl)cc21)NNC(=S)NCc1ccco1`?
MIC (Escherichia coli [3]): > 100 µM; MIC (Staphylococcus aureus [5]): 100 µM (≈ 48.1 µg/mL)

`CN(C)c1ccc(N/C(S)=N/NC(=O)Cn2c(C3CCNCC3)nc3cc(Cl)c(Cl)cc32)cc1` was tested. Which MIC (Escherichia coli [3]) did it give?
The MIC was greater than 100 µM.

What about the MIC (Staphylococcus aureus [5]) of the same molecule?
The MIC was 100 µM (≈ 52 µg/mL).

With `O=C(Cn1c(C2CCNCC2)nc2cc(Cl)c(Cl)cc21)N/N=C/c1ccc2c(c1)OCCO2` as the molecule, how does the MIC (Escherichia coli [3]) read?
The MIC was greater than 100 µM.

And the MIC (Staphylococcus aureus [5])?
Its MIC is 100 µM (≈ 48.8 µg/mL).

What does the source list for `Clc1cc2nc(C3CCNCC3)n(CCCn3c(C4CCNCC4)nc4cc(Cl)c(Cl)cc43)c2cc1Cl`?
MIC (Escherichia coli [6]): 50 µM (≈ 29 µg/mL); MIC (Staphylococcus aureus [7]): 50 µM (≈ 29 µg/mL)

Which results are given for `O=S(=O)(NCCCCCn1c(C2CCNCC2)nc2cc(Cl)c(Cl)cc21)c1ccccc1`?
MIC (Escherichia coli [3]): > 100 µM; MIC (Staphylococcus aureus [4]): > 100 µM

What does the source list for `Clc1cc2nc(C3CCNCC3)n(CCCCCCn3c(C4CCNCC4)nc4cc(Cl)c(Cl)cc43)c2cc1Cl`?
IC50 (Bacteria): > 100 µM; MIC (Enterococcus hirae [8]): 3 µM (≈ 1.87 µg/mL); MIC (Escherichia coli [9]): 25 µM (≈ 15.6 µg/mL); MIC (Escherichia coli [10]): 25 µM (≈ 15.6 µg/mL); MIC (Klebsiella pneumoniae [11]): 12 µM (≈ 7.47 µg/mL); MIC (Pseudomonas aeruginosa [12]): 25 µM (≈ 15.6 µg/mL); MIC (Staphylococcus aureus [13]): 12 µM (≈ 7.47 µg/mL); MIC (Staphylococcus aureus [14]): 12 µM (≈ 7.47 µg/mL); MIC (Streptococcus pneumoniae [15]): 12 µM (≈ 7.47 µg/mL); MIC (Streptococcus pyogenes [16]): 6 µM (≈ 3.73 µg/mL)

What does the source list for `COc1cccc(/C=N/NC(=O)Cn2c(C3CCNCC3)nc3cc(Cl)c(Cl)cc32)c1`?
MIC (Escherichia coli [3]): > 100 µM; MIC (Staphylococcus aureus [7]): 50 µM (≈ 23 µg/mL)

With `O=C(Cn1c(C2CCNCC2)nc2cc(Cl)c(Cl)cc21)N/N=C/c1cc[n+]([O-])cc1` as the molecule, how does the MIC (Escherichia coli [3]) read?
The MIC was greater than 100 µM.

What about the MIC (Staphylococcus aureus [4]) of the same molecule?
Its MIC is greater than 100 µM.

`O=C(Cn1c(C2CCNCC2)nc2cc(Cl)c(Cl)cc21)NNC(=S)NCCCN1CCOCC1` was tested. Which MIC (Escherichia coli [3]) did it give?
The MIC was greater than 100 µM.

And the MIC (Staphylococcus aureus [4])?
Its MIC is greater than 100 µM.

How did the MIC (Escherichia coli [3]) turn out when `Clc1cc2nc(C3CCNCC3)n(CCCCCn3cnnc3)c2cc1Cl` was run?
Its MIC is greater than 100 µM.

What about the MIC (Staphylococcus aureus [4]) of the same molecule?
The MIC was greater than 100 µM.

Which IC50 (Bacteria) does the source give for `O=C(Cn1c(C2CCNCC2)nc2cc(Cl)c(Cl)cc21)N/N=C/c1c[nH]c2ccc(OCc3ccccc3)cc12` here?
Its IC50 is greater than 100 µM.

And the MIC (Enterococcus hirae [17])?
The MIC was 6 µM (≈ 3.45 µg/mL).

And the MIC (Escherichia coli [3])?
The MIC was greater than 100 µM.

What about the MIC (Escherichia coli [18]) of the same molecule?
The MIC was greater than 100 µM.

And the MIC (Klebsiella pneumoniae [11])?
Its MIC is 12 µM (≈ 6.91 µg/mL).

What about the MIC (Pseudomonas aeruginosa [19]) of the same molecule?
The MIC was 100 µM (≈ 57.6 µg/mL).

What about the MIC (Proteus vulgaris [20]) of the same molecule?
Its MIC is 100 µM (≈ 57.6 µg/mL).

And the MIC (Staphylococcus aureus [21])?
Its MIC is 6 µM (≈ 3.45 µg/mL).

What about the MIC (Staphylococcus aureus [22]) of the same molecule?
The MIC was 6 µM (≈ 3.45 µg/mL).

And the MIC (Streptococcus pyogenes [23])?
The MIC was 12 µM (≈ 6.91 µg/mL).

What about the MIC (Streptococcus pneumoniae [24]) of the same molecule?
The MIC was 25 µM (≈ 14.4 µg/mL).

With `O=C1c2ccccc2C(=O)N1CCn1c(C2CCNCC2)nc2cc(Cl)c(Cl)cc21` as the molecule, how does the MIC (Escherichia coli [3]) read?
The MIC was greater than 100 µM.

What about the MIC (Staphylococcus aureus [4]) of the same molecule?
The MIC was greater than 100 µM.

With `O=C(NCCCCCn1c(C2CCNCC2)nc2cc(Cl)c(Cl)cc21)c1ccccc1` as the molecule, how does the MIC (Escherichia coli [3]) read?
The MIC was greater than 100 µM.

And the MIC (Staphylococcus aureus [4])?
The MIC was greater than 100 µM.

Which MIC (Escherichia coli [1]) does the source give for `Clc1cc2nc(C3CCNCC3)n(CCCCCn3cnc4ccccc43)c2cc1Cl` here?
The MIC was 100 µM (≈ 45.6 µg/mL).

What about the MIC (Staphylococcus aureus [5]) of the same molecule?
Its MIC is 100 µM (≈ 45.6 µg/mL).

Which MIC (Escherichia coli [6]) does the source give for `O=C(Cn1c(C2CCNCC2)nc2cc(Cl)c(Cl)cc21)NNC(=O)Nc1ccccc1-c1ccccc1` here?
The MIC was 50 µM (≈ 26.9 µg/mL).

And the MIC (Staphylococcus aureus [2])?
The MIC was 25 µM (≈ 13.4 µg/mL).

`CSc1ccc(NC(=O)NNC(=O)Cn2c(C3CCNCC3)nc3cc(Cl)c(Cl)cc32)cc1` was tested. Which MIC (Escherichia coli [6]) did it give?
The MIC was 50 µM (≈ 25.4 µg/mL).

And the MIC (Staphylococcus aureus [2])?
The MIC was 25 µM (≈ 12.7 µg/mL).

For `O=C1c2ccccc2C(=O)N1CCCCCCn1c(C2CCNCC2)nc2cc(Cl)c(Cl)cc21`, which MIC (Escherichia coli [3]) is on record?
Its MIC is greater than 100 µM.

What about the MIC (Staphylococcus aureus [4]) of the same molecule?
Its MIC is greater than 100 µM.

Which MIC (Escherichia coli [3]) does the source give for `COc1cc(/C=N/NC(=O)Cn2c(C3CCNCC3)nc3cc(Cl)c(Cl)cc32)cc([N+](=O)[O-])c1O` here?
Its MIC is greater than 100 µM.

And the MIC (Staphylococcus aureus [7])?
Its MIC is 50 µM (≈ 26.1 µg/mL).

What does the source list for `O=C1c2ccccc2C(=O)N1CCCCCn1c(C2CCNCC2)nc2cc(Cl)c(Cl)cc21`?
IC50 (Bacteria): 25 µM; MIC (Enterococcus hirae [25]): 50 µM (≈ 24.3 µg/mL); MIC (Escherichia coli [6]): 50 µM (≈ 24.3 µg/mL); MIC (Escherichia coli [26]): 50 µM (≈ 24.3 µg/mL); MIC (Klebsiella pneumoniae [27]): 50 µM (≈ 24.3 µg/mL); MIC (Pseudomonas aeruginosa [19]): 100 µM (≈ 48.5 µg/mL); MIC (Proteus vulgaris [28]): 50 µM (≈ 24.3 µg/mL); MIC (Staphylococcus aureus [29]): 50 µM (≈ 24.3 µg/mL); MIC (Staphylococcus aureus [14]): 12 µM (≈ 5.82 µg/mL); MIC (Streptococcus pyogenes [30]): 50 µM (≈ 24.3 µg/mL); MIC (Streptococcus pneumoniae [24]): 25 µM (≈ 12.1 µg/mL)
